# In PMC6405930, “Conservation of the Amyloid Interactome Across Diverse Fibrillar Structures” (Scientific Reports, 2019):
# What was measured:
# Ab2 fibrils [1] = system: T1, Ab2 fibrils; experiment: Determination of the binding capacity (dye depletion from supernatant); set-up: species or system human; conditions: 2 nmol dye (20 µM) with 10 μg fibril material, one hour
# T1 construct: Two structurally distinct fibrils of the Aβ(1–40) peptide associated with AD
# Procedure: (§1) Control samples (without fibril material) were prepared similarly. Fibrils and fibril-bound ligand were pelleted by centrifugation (17,000 g, 30 min) and the supernatant (90 μL) was transferred to a 96 well half-area plate (Corning 3881).
# Ab1 fibrils [2] = system: T2, Ab1 fibrils; experiment: as above; set-up: species or system human; conditions: 2 nmol dye (20 µM) with 10 μg fibril material, one hour
# T2 construct: Synthetic amyloid β peptide 1–40 was purchased from Caslo Aps (Lyngby, Denmark); purchased Caslo Aps (Lyngby, Denmark); host or cells: synthetic peptide
# Procedure: as §1
# C-36 fibrils [3] = target: T3, C-36 fibrils (Homo sapiens, UniProt P01009); experiment: as above; conditions: 2 nmol dye (20 µM) with 10 μg fibril material, one hour
# T3 construct: the 36 residue C-terminal fragment of α1-antitrypsin (C-36)
# Procedure: as §1
# αSN fibrils [4] = target: T4, αSN fibrils (Homo sapiens, UniProt P37840); experiment: as above; conditions: 2 nmol dye (20 µM) with 10 μg fibril material, one hour
# Procedure: as §1
# glucagon fibrils [5] = target: T5, glucagon fibrils (Homo sapiens, UniProt P01275); experiment: as above; conditions: 2 nmol dye (20 µM) with 10 μg fibril material, one hour
# T5 construct: fibrils of the peptide hormone glucagon
# Procedure: as §1
# FAS4 AD aggregates = system: T6, FAS4 AD aggregates; experiment: Fibril titration with ANS (fluorescence); assay type: binding, human; conditions: 2.5 μg aggregate material, ANS 20 to 167 μM
# T6 construct: a mutated version of the FAS1-4 domain of TGFBIp
# Procedure: (§2) Fibril material (2.5 μg) was set up in 50 μL phosphate buffer in a 96 well half-area NBS plate (NUNC/Terma). Stepwise ANS titration was conducted from 20 to 167 μM with 100 sec mixing (300 rpm) before each measurement using a FLUOstar Omega plate reader (excitation at […], emission at 485 nm).
# Ab2 fibrils [6] = system: T1, Ab2 fibrils; experiment: Fibril titration with ANS (fluorescence); assay type: binding, human; conditions: 2.5 μg aggregate material, ANS 20 to 167 μM
# Procedure: as §2
# Ab1 fibrils [7] = system: T2, Ab1 fibrils; experiment: Fibril titration with ANS (fluorescence); assay type: binding, human; conditions: 2.5 μg aggregate material, ANS 20 to 167 μM
# Procedure: as §2
# C-36 fibrils [8] = target: T3, C-36 fibrils; experiment: Fibril titration with ANS (fluorescence); assay type: binding; conditions: 2.5 μg aggregate material, ANS 20 to 167 μM
# Procedure: as §2
# αSN fibrils [9] = target: T4, αSN fibrils; experiment: Fibril titration with ANS (fluorescence); assay type: binding; conditions: 2.5 μg aggregate material, ANS 20 to 167 μM
# Procedure: as §2
# glucagon fibrils [10] = target: T5, glucagon fibrils; experiment: Fibril titration with ANS (fluorescence); assay type: binding; conditions: 2.5 μg aggregate material, ANS 20 to 167 μM
# Procedure: as §2
# [11] = system: chymotrypsinogen aggregates; experiment: Fibril titration with ANS (fluorescence); assay type: binding; conditions: 2.5 μg aggregate material, ANS 20 to 167 μM
# Procedure: as §2
# Ab1 fibrils [12] = system: T2, Ab1 fibrils; experiment: Fibril incubation with CSF, quantitative MS/MS of bound proteins; assay type: binding, human; conditions: 4:1 w/w CSF protein:fibril
# Procedure: (§3) Plasma and CSF solutions were centrifuged (40,000 g, 20 min) to remove any aggregates. The protein concentration was determined using 280 nm absorbance assuming 1 Abs = 1 mg/mL. […] Control samples (without fibril material) were prepared similarly. All samples were incubated at room temperature for one hour under gentle agitation. Fibrils and fibril-bound proteins were pelleted by centrifugation at 17,000 g for 30 minutes. The supernatant (175 μL) was removed and the aggregate was re-suspended in 175 μL PBS and pelleted again before further preparation for gel analysis and spin-filter assisted digest for quantitative MS/MS.
# (§4) The fibril-protein pellets were transferred to spin-filters (0.22 μm), washed twice in PBS (100 μL) and once in 1 M NaCl (100 μL). The fibrils and fibril-bound proteins were dissolved by one-hour incubation in 100 μL 6 M guanidinium chloride followed by elution from the spin-filter. The eluted proteins were loaded onto a 3 kDa MWCO filter unit for filter-assisted unfolding, reduction, alkylation, and trypsin digestion. In brief, samples were washed twice in 8 M urea, once in 8 M urea with 50 mM DTT, once in 8 M urea with 50 mM iodoaceteamide, and twice in 8 M Urea. The filter units were dried by centrifugation (14,000 g in 30 minutes) after every addition. Trypsin digestion was carried out with 0.25 μg sequencing grade trypsin from Sigma Aldrich in 50 mM ammonium bicarbonate overnight at 37 °C. The tryptic peptides were collected by centrifugation, acidified with TFA (0.1%) and micro-purified using POROS R2 column material (Applied Biosystems) packed in P200 pipette tips (Sarstedt).
# (§5) LC-MS/MS analyses were performed on an EASY-nLC II system (Thermo Fisher Scientific) connected to a TripleTOF 5600+ mass spectrometer (Sciex) equipped with a NanoSpray III source (Sciex) and operated under Analyst TF 1.6.0 control.
# (§6) The micro-purified tryptic peptides were dissolved in 0.1% formic acid, injected and trapped on an in-house packed trap column (2 cm × 100 μm I.D) with RP ReproSil-Pur C18-AQ 3 μm resin (Dr. Maisch GmbH). Peptides were eluted from the trap column and separated on a 15 cm analytical column (75 μm i.d.) packed in-house in a pulled emitter with RP ReproSil-Pur C18-AQ 3 μm resin (Dr. Maisch GmbH). Elution from the analytical column was performed with a linear gradient from 5% to 35% phase B (90% acetonitrile with 0.1% formic acid) over 20 min for protein identification and 50 min for quantitative analysis, respectively.
# (§7) All samples were analysed three times, yielding nine MS/MS experiments for each fibril for both plasma and CSF. For the area-based extracted ion chromatogram (XIC) quantification, the acquisition method was set up as an information-dependent acquisition (IDA) experiment collecting up to 25 MS/MS spectra in each 1.6 sec cycle using an exclusion window of 6 sec.
# (§8) XIC quantification was based on the average ion intensity of the three most abundant peptides for each protein. Only proteins quantified in at least four out of nine MS/MS experiments per fibril were included in the quantification. The total ion scores were visualized after grouping the proteins according to function (Figure S11).
# (§9) For each MS/MS experiment, the ion intensities of the individual proteins were normalized to the total ion intensity of that MS/MS experiment to achieve a relative protein composition. The contribution of each protein was averaged over all nine MS/MS experiments (Tables 1 and 2).
# FAS4-AD aggregates [13] = system: T7, FAS4-AD aggregates; experiment: as above; assay type: binding, human; set-up: key to Identification status of CSF protein bound: FAS4-AD: *: Identified, but not quantified; —: Not identified in any of the samples; conditions: symbol cells
# T7 construct: aggregates of a mutated version of the FAS1-4 domain of TGFBIp
# Procedure: as §3, §4, §5, §6, §7, §8, §9
# αSN fibrils [14] = target: T4, αSN fibrils; experiment: Fibril incubation with plasma, quantitative MS/MS of bound proteins; assay type: binding; conditions: 50:1 w/w plasma protein:fibril
# Procedure: as §3, §4, §5, §6, §7, §8, §9
# [15] = system: fibril systems (Ab1, Ab2, glucagon, αSN and C-36); experiment: Fibril incubation with plasma, quantitative MS/MS, span over the fibril systems; assay type: binding, human
# Procedure: (§10) Plasma and CSF solutions were centrifuged (40,000 g, 20 min) to remove any aggregates. The protein concentration was determined using 280 nm absorbance assuming 1 Abs = 1 mg/mL. […] Control samples (without fibril material) were prepared similarly. All samples were incubated at room temperature for one hour under gentle agitation. Fibrils and fibril-bound proteins were pelleted by centrifugation at 17,000 g for 30 minutes. The supernatant (175 μL) was removed and the aggregate was re-suspended in 175 μL PBS and pelleted again before further preparation for gel analysis and spin-filter assisted digest for quantitative MS/MS.
# The fibril-protein pellets were transferred to spin-filters (0.22 μm), washed twice in PBS (100 μL) and once in 1 M NaCl (100 μL). The fibrils and fibril-bound proteins were dissolved by one-hour incubation in 100 μL 6 M guanidinium chloride followed by elution from the spin-filter. […]
# as §6, with “Peptides were eluted from the trap column and separated on a 15 cm analytical column (75 μm i.d.) packed in-house in a pulled emitter with RP ReproSil-Pur C18-AQ 3 μm resin (Dr. Maisch GmbH).” left out
# as §7, with “sec. […]” for “sec.”
# XIC quantification was based on the average ion intensity of the three most abundant peptides for each protein. Only proteins quantified in at least four out of nine MS/MS experiments per fibril were included in the quantification. […]
# αSN fibrils [16] = target: T4, αSN fibrils; experiment: Fibril incubation with CSF, quantitative MS/MS of bound proteins; assay type: binding; conditions: 4:1 w/w CSF protein:fibril
# Procedure: as §3, §4, §5, §6, §7, §8, §9
# Ab2 fibrils [17] = system: T1, Ab2 fibrils; experiment: Fibril incubation with plasma, quantitative MS/MS of bound proteins; assay type: binding, human; conditions: 50:1 w/w plasma protein:fibril
# Procedure: as §3, §4, §5, §6, §7, §8, §9
# glucagon fibrils [18] = target: T5, glucagon fibrils; experiment: Fibril incubation with CSF, quantitative MS/MS of bound proteins; assay type: binding; conditions: 4:1 w/w CSF protein:fibril
# Procedure: as §3, §4, §5, §6, §7, §8, §9
# Ab2 fibrils [19] = system: T1, Ab2 fibrils; experiment: as above; assay type: binding, human; conditions: 4:1 w/w CSF protein:fibril
# Procedure: as §3, §4, §5, §6, §7, §8, §9
# C-36 fibrils [20] = target: T3, C-36 fibrils; experiment: Fibril incubation with plasma, quantitative MS/MS of bound proteins; assay type: binding; conditions: 50:1 w/w plasma protein:fibril
# Procedure: as §3, §4, §5, §6, §7, §8, §9
# C-36 fibrils [21] = target: T3, C-36 fibrils; experiment: Fibril incubation with CSF, quantitative MS/MS of bound proteins; assay type: binding; conditions: 4:1 w/w CSF protein:fibril
# Procedure: as §3, §4, §5, §6, §7, §8, §9
# Ab1 fibrils [22] = system: T2, Ab1 fibrils; experiment: Fibril incubation with plasma, quantitative MS/MS of bound proteins; assay type: binding, human; conditions: 50:1 w/w plasma protein:fibril
# Procedure: as §10, §4, §5, §6, §7, §8, §9
# glucagon fibrils [23] = target: T5, glucagon fibrils; experiment: as above; assay type: binding; conditions: 50:1 w/w plasma protein:fibril
# Procedure: as §3, §4, §5, §6, §7, §8, §9
# FAS4-AD aggregates [24] = system: T7, FAS4-AD aggregates; experiment: as above; assay type: binding, human; conditions: 50:1 w/w plasma protein:fibril
# Procedure: as §3, §4, §5, §6, §7, §8, §9
# T5 sequence (P01275 53-81 limits assumed): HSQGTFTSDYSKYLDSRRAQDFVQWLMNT
# T3 sequence (P01009 383-418 limits assumed): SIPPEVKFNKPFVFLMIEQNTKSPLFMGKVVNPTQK
compound,measurement,setting,value
"O=C(O)c1cc(/C=C/c2ccc(/C=C/c3ccc(O)c(C(=O)O)c3)c(F)c2)ccc1O [FSB, (E,E)-1-fluoro-2,5-bis-(3-hydroxycarbonyl-4-hydroxy)styrylbenzene]",Ligand bound (binding capacity),Ab2 fibrils [1],54 nmol/mg fibril
same,Ligand bound (binding capacity),Ab1 fibrils [2],45 nmol/mg fibril
same,Ligand bound (binding capacity),C-36 fibrils [3],197 nmol/mg fibril
same,Ligand bound (binding capacity),αSN fibrils [4],123 nmol/mg fibril
same,Ligand bound (binding capacity),glucagon fibrils [5],128 nmol/mg fibril
"O=S(=O)(O)c1cccc2cccc(Nc3ccccc3)c12 [ANS, 8-anilinonaphthalene sulfonate]",ANS fluorescence signal,FAS4 AD aggregates,intermediate signal intensities
same,ANS fluorescence signal,Ab2 fibrils [6],little or no signal at all
same,ANS fluorescence signal,Ab1 fibrils [7],little or no signal at all
same,ANS fluorescence signal,C-36 fibrils [8],little or no signal at all
same,ANS fluorescence signal,αSN fibrils [9],significant fluorescence enhancements
same,ANS fluorescence signal,glucagon fibrils [10],little or no signal at all
same,ANS fluorescence signal,[11],intermediate signal intensities
Apolipoprotein A-I: plasma/CSF protein bound to fibrils,Relative composition of CSF proteins bound: Ab1,Ab1 fibrils [12],3.9 ± 0.4 % of total protein
same,Identification status of CSF protein bound: FAS4-AD,FAS4-AD aggregates [13],*
same,Relative composition of plasma proteins bound: αSN,αSN fibrils [14],14.7 ± 3.0 % of total protein
same,contribution to the fibril interactomes,[15],8.8–14.9%
same,Relative composition of CSF proteins bound: αSN,αSN fibrils [16],2.7 ± 1.0 % of total protein
same,Relative composition of plasma proteins bound: Ab2,Ab2 fibrils [17],14.9 ± 7.0 % of total protein
same,Relative composition of CSF proteins bound: Glucagon,glucagon fibrils [18],2.6 ± 0.8 % of total protein
same,Relative composition of CSF proteins bound: Ab2,Ab2 fibrils [19],2.9 ± 0.6 % of total protein
same,Relative composition of plasma proteins bound: C-36,C-36 fibrils [20],13.5 ± 0.5 % of total protein
same,Relative composition of CSF proteins bound: C-36,C-36 fibrils [21],5.0 ± 1.6 % of total protein
same,Relative composition of plasma proteins bound: Ab1,Ab1 fibrils [22],8.8 ± 0.9 % of total protein
same,Relative composition of plasma proteins bound: Glucagon,glucagon fibrils [23],11.7 ± 1.4 % of total protein
same,Relative composition of plasma proteins bound: FAS4-AD,FAS4-AD aggregates [24],15.7 ± 4.6 % of total protein
